# How the values were obtained:
# [1] = system: Corn Earworm (CEW) (Helicoverpa zea); assay: Bioassay on corn earworm (CEW), 128-well diet tray assay; type: in vivo; conditions: Helicoverpa zea; corn earworm, 50 μg/cm^2; read-out: % Mortality CEW 50 μg/cm^2
# Protocol: (§1) Certain molecules disclosed in this document were tested against BAW and CEW using procedures described in the following examples. In the reporting of the results, the “BAW & CEW Rating Table” was used (See Table Section).
# Bioassays on CEW (Helicoverpa zea)
# Bioassays on CEW were conducted using a 128-well diet tray assay. […] Trays were covered with a clear self-adhesive cover and held at 25° C., 14:10 light-dark for five to seven days. Percent mortality was recorded for the larvae in each well; activity in the eight wells was then averaged. The results are indicated in the table entitled “Table 5: Biological Results” (See Table Section).
# [2] = system: Beet Armyworm (BAW) (Spodoptera exigua); assay: Bioassay on beet armyworm (BAW), 128-well diet tray assay; type: in vivo; conditions: Spodoptera exigua; beet armyworm, 50 μg/cm^2; read-out: % Mortality BAW 50 μg/cm^2
# Protocol: as §1
# Bioassays on BAW (Spodoptera exigua)
# Bioassays on BAW were conducted using a 128-well diet tray assay. […] Trays were covered with a clear self-adhesive cover and held at 25° C., 14:10 light-dark for five to seven days. Percent mortality was recorded for the larvae in each well; activity in the eight wells was then averaged. The results are indicated in the table entitled “Table 5: Biological Results” (See Table Section).
SMILES,mortality at 50 µg/cm2 [1],mortality at 50 µg/cm2 [2]
Cc1cs/c(=N\N=C\c2ccc(-c3ncn(-c4ccc(OC(F)(F)F)cc4)n3)cc2)n1-c1ccccc1C(C)C [Compound 176C],50 to 100%,50 to 100%
CC1CCS/C(=N\N=C\c2ccc(-c3ncn(-c4ccc(OC(F)(F)F)cc4)n3)cc2)N1c1ccccc1OC(F)F (stereo not drawn) [Compound 221C],50 to 100%,50 to 100%
CC(C)c1ccccc1N1CCS/C1=N\N=C\c1ccc(-c2ncn(-c3ccc(C(F)(F)F)cc3)n2)cc1 [Compound 134C],50 to 100%,50 to 100%
CC(C)c1ccccc1N1/C(=N/N=C/c2ccc(-c3ncn(-c4ccc(OC(F)(F)F)cc4)n3)cc2)SCC1(O)C(F)(F)F (racemic) [Compound 246C],50 to 100%,50 to 100%
"CC1(O)CS/C(=N\c2c(Cl)cccc2C(F)(F)F)N1/N=C/c1ccc(-c2ncn(-c3ccc(OC(F)(F)F)cc3)n2)cc1 (stereo not drawn) [Compound 241C, (Z)-2-((2-chloro-6-(trifluoromethyl)phenyl)imino)-4-methyl-3-((E)-(4-(1-(4-(trifluoromethoxy)phenyl)-1H-1,2,4-triazol-3-yl)benzylidene)amino)thiazolidin-4-ol]",50 to 100%,50 to 100%
CC1CCS/C(=N\N=C\c2ccc(-c3ncn(-c4ccc(OC(F)(F)F)cc4)n3)cc2)N1c1ccccc1OC(F)(F)F (stereo not drawn) [Compound 216C],50 to 100%,50 to 100%
"Cc1cccc(C)c1/N=C(/N/N=C/c1ccc(-c2ncn(-c3ccc(OC(F)(F)F)cc3)n2)cc1)SCC(=O)NC[C@@H]1CCCN(C(=O)OC(C)(C)C)C1 [Compound 56C, (S)-tert-butyl 3-((2-((Z)-(2,6-dimethylphenylimino)-((E)-2-(4-(1-(4-(trifluoromethoxy)phenyl)-1H-1,2,4-triazol-3-yl)benzylidene)hydrazinyl)-methylthio)acetamido)methyl)piperidine-1-carboxylate]",50 to 100%,50 to 100%
CCCc1ccccc1N1C(=O)C(C)S/C1=N\N=C\c1ccc(-c2ncn(-c3ccc(OC(F)(F)F)cc3)n2)cc1 (stereo not drawn) [Compound 128C],50 to 100%,50 to 100%
Cc1cc(C)c(N2/C(=N/N=C/c3ccc(-c4ncn(-c5ccc(OC(F)(F)F)cc5)n4)cc3)SCCC2C)c(C)c1 (stereo not drawn) [Compound 218C],50 to 100%,50 to 100%
Fc1cccc(F)c1N1CCS/C1=N\N=C\c1ccc(-c2ncn(-c3ccc(OC(F)(F)F)cc3)n2)cc1 [Compound 148C],50 to 100%,50 to 100%
CC1CS/C(=N\N=C\c2ccc(-c3ncn(-c4ccc(OC(F)(F)F)cc4)n3)cc2)N1c1ccccc1C(C)(C)C (stereo not drawn) [Compound 165C],50 to 100%,50 to 100%
CC1S/C(=N\N=C\c2ccc(-c3ncn(-c4ccc(OC(F)(F)F)cc4)n3)cc2)N(c2c(Cl)cccc2Cl)C1=O (stereo not drawn) [Compound 129C],50 to 100%,50 to 100%
COc1ccc(/N=C(/N/N=C/c2ccc(-c3ncn(-c4ccc(OC(F)(F)C(F)(F)F)cc4)n3)cc2)SCC(=O)O)c(C)c1 [Compound 50C],50 to 100%,50 to 100%
COc1ccc(N2/C(=N/N=C/c3ccc(-c4ncn(-c5ccc(OC(F)(F)F)cc5)n4)cc3)SCCC2C)c(C)c1 (stereo not drawn) [Compound 219C],50 to 100%,50 to 100%
Cc1cccc(N2/C(=N/N=C/c3ccc(-c4ncn(-c5ccc(OC(F)(F)F)cc5)n4)cc3)SCC2(C)O)c1C(C)C (stereo not drawn) [Compound 252C],50 to 100%,50 to 100%
O=C1CS/C(=N\N=C\c2ccc(-c3ncn(-c4ccc(OC(F)(F)F)cc4)n3)cc2)N1c1c(Br)cccc1Br [Compound 99C],50 to 100%,50 to 100%
CCc1cc(OC)ccc1N1/C(=N/N=C/c2ccc(-c3ncn(-c4ccc(OC(F)(F)C(F)(F)F)cc4)n3)cc2)SCC1(C)O (stereo not drawn) [Compound 264C],,50 to 100%

SMILES,mortality at 50 µg/cm2 [1],mortality at 50 µg/cm2 [2]
Cc1ccccc1N1C(=O)CS/C1=N\N=C\c1ccc(-c2ncn(-c3ccc(OC(F)(F)F)cc3)n2)cc1 [Compound 113C],50 to 100%,50 to 100%
COc1cccc(N2C(=O)CS/C2=N\N=C\c2ccc(-c3ncn(-c4ccc(OC(F)(F)F)cc4)n3)cc2)c1 [Compound 91C],0%,0%
CN(C)c1cccc(N2C(=O)CS/C2=N\N=C\c2ccc(-c3ncn(-c4ccc(OC(F)(F)F)cc4)n3)cc2)c1 [Compound 97C],50 to 100%,50 to 100%
CCOC(=O)c1ccccc1N1C(=O)CS/C1=N\N=C\c1ccc(-c2ncn(-c3ccc(OC(F)(F)F)cc3)n2)cc1 [Compound 107C],0%,0%
COC(=O)C1CC(c2ccc(/C=N/N=C3\SCC(=O)N3c3c(C)cccc3C)cc2)=NN1c1ccc(OC(F)(F)F)cc1 (stereo not drawn) [Compound 110C],50 to 100%,50 to 100%
FC(F)Oc1ccccc1N1CCS/C1=N\N=C\c1ccc(-c2ncn(-c3ccc(OC(F)(F)F)cc3)n2)cc1 [Compound 152C],50 to 100%,50 to 100%
CCC(C)c1ccccc1N1C(=O)CCS/C1=N\N=C\c1ccc(-c2ncn(-c3ccc(OC(F)(F)F)cc3)n2)cc1 (stereo not drawn) [Compound 230C],50 to 100%,50 to 100%
CC(C)(C)c1ccccc1N1C(=O)CS/C1=N\N=C\c1ccc(-c2ncn(-c3ccc(OC(F)(F)F)cc3)n2)cc1 [Compound 125C],50 to 100%,50 to 100%
Cc1cccc(C)c1N1C(=O)CS/C1=N\N=C\c1ccc(-c2ccn(-c3ccc(OC(F)(F)F)cc3)n2)cc1 [Compound 103C],50 to 100%,50 to 100%
CCC(C)c1ccccc1N1/C(=N/N=C/c2ccc(-c3ncn(-c4ccc(OC(F)(F)F)cc4)n3)cc2)SCC1(O)C(F)(F)F (stereo not drawn) [Compound 247C],50 to 100%,50 to 100%
Cc1cccc(C(C)C)c1N1C(=O)CS/C1=N\N=C\c1ccc(-c2ncn(-c3ccc(OC(F)(F)F)cc3)n2)cc1 [Compound 238C],50 to 100%,50 to 100%
FC(F)(F)Oc1ccc(-n2cnc(-c3ccc(/C=N/N=C4\SCCN4c4ccccc4OC(F)(F)F)cc3)n2)cc1 [Compound 153C],50 to 100%,0%
CC(C)c1cc(F)ccc1N1/C(=N/N=C/c2ccc(-c3ncn(-c4ccc(OC(F)(F)F)cc4)n3)cc2)SCC1(C)O (stereo not drawn) [Compound 258C],50 to 100%,50 to 100%
CCC(C)c1ccccc1N1/C(=N/N=C/c2ccc(-c3ncn(-c4ccc(OC(F)(F)F)cc4)n3)cc2)SCCC1C (stereo not drawn) [Compound 220C],50 to 100%,50 to 100%
O=C1CS/C(=N\N=C\c2ccc(-c3ncn(-c4ccc(OC(F)(F)F)cc4)n3)cc2)N1c1ccccc1Cl [Compound 106C],50 to 100%,50 to 100%
CC1CCS/C(=N\N=C\c2ccc(-c3ncn(-c4ccc(OC(F)(F)F)cc4)n3)cc2)N1c1ccccc1C(C)(C)C (stereo not drawn) [Compound 222C],50 to 100%,50 to 100%
CCOc1cccc(OCC)c1N1C(=O)CS/C1=N\N=C\c1ccc(-c2ncn(-c3ccc(OC(F)(F)F)cc3)n2)cc1 [Compound 98C],,50 to 100%
